Measured values from BindingDB's records for doi:10.1016/j.ejmech.2016.03.016 (Peking University, 2016).

Target: Neuronal acetylcholine receptor subunit alpha-7 (Homo sapiens, UniProt P36544)
Test: Agonist activity at human alpha7 nAChR expressed in xenopus oocytes preincubated for 10 mins followed by acetylcholine addition by patch clamp electrophysiological assay

Chain of Neuronal acetylcholine receptor subunit alpha-7 (P36544 whole entry): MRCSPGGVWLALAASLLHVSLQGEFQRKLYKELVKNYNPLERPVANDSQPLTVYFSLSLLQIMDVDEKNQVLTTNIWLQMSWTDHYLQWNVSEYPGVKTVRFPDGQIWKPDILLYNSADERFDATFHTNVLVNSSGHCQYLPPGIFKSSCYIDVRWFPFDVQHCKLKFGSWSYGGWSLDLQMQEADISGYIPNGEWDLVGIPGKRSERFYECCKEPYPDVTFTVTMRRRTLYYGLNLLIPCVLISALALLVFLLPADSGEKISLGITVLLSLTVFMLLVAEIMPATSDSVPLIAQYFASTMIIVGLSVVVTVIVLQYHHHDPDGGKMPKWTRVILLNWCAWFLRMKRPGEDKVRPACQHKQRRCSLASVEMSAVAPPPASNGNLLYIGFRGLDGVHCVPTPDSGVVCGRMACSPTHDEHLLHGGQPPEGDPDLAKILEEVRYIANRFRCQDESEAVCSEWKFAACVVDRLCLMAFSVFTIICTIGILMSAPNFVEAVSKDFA

O=C(N[C@H]1CN2CCC1CC2)c1cc2cccc(Br)n2c1
EC50: 1.78 µM
